From US5244662A, “Medicinal extract from a mixture of Phellodendron and defatted seed of Croton, and method for it's manufacture” (Korea Green Cross Corporation, priority 1990, dated 1993)

Experiments:
[1] = test system: P388 (ATCC CCL 46); set-up: species or system BDFI mice; details: mouse, in vivo
[2] = test system: L1210 (ATCC CCL 219); set-up: species or system BDFI mice; details: mouse, in vivo
[3] = test system: osteoporosis; assay: Clinical trial in osteoporosis; assay type: in vivo, patient
From the text: (G-1) Clinical trial on a severe case whose vertebral density was just 0.332 g/cm^2 (29% of normal value), that is, corresponding to the 10th year from each menopause and the inability to walk over ten minutes. […]

[4] = test system: granuloma cells; assay: Action on primary granuloma cells (progesterone production); assay type: cell-based, rats
Method: Current antitumour drugs affect normal cellular growth as well as growth of tumour cells, whereby very careful therapeutic application of the agents has been required. […] The action of the present extract on spleen cells and granuloma cells was investigated to evaluate the action on normal cellular growth.
The spleen cells originated from BALB/C mice and were cultured in RPMI media under the condition of 7% CO2 /37° C. The granuloma cells originated from the ovum of young rats aged 25 days and were cultured in DMEM/F 12(1:1) media containing fetal bovine serum under the same conditions.

[5] = test system: PO-GRSI cells; assay: Steroid hormone synthesis of PO-GRSI; assay type: cell-based
Method: Granuloma cells play an important role in producing ovum in mammalian animals, and particularly secrete progesterone to enhance the proliferation of ovum. Granuloma cells metastasized artificially with carcinogenic genes (SV-40 and Ha-Ras) have the ability to synthesize both progesterone, the cell's original function and protein, and the original function of the carcinogenic gene. For the test, PO-GRSI and PA-GS6 were cultured in DMEM/F12(1:1) haematologic culture media containing insulin(2 μg/ml), transferin (5 μg/ml), hydrocortisone(40 μg/ml) and fibronectin(5 μg/ml), and the progesterone was analyzed by radioimmunoassay ([…]).
The antitumour activities of the extract obtained in Example 1 against Granuloma cells were determined also by evaluating its action on the progesterone and 20 alpha --OH-- progesterone synthesis of the captioned two kinds of cells. In the meantime, the action of FORSKOLIN to enhance the two steroid hormone syntheses were also checked.

[6] = treatment of osteoporosis; cited from earlier work

## CO[C@@]12[C@H](COC(N)=O)C3=C(C(=O)C(C)=C(N)C3=O)N1C[C@@H]1N[C@@H]12 [mitomycin C]
[1]
  survival rate (%): 130.4%
  survival time: 21.6 days
[2]
  survival rate (%): 135%
  survival time: 21 days

## CC#C[C@]1(O)CC[C@H]2[C@@H]3CCc4cc(O)ccc4[C@H]3CC[C@@]21C [Estrogen]
[3]
  vertebral density maintained: 0.341 g/cm^2

## C=C[C@@]1(C)CC(=O)[C@]2(O)[C@@]3(C)[C@@H](O)CCC(C)(C)[C@@H]3[C@H](O)[C@H](OC(C)=O)[C@@]2(C)O1 [forskolin]
[4]; forskolin
  progesterone secretion versus control: eight times that of the control
[4]; forskolin 10^-4 M, control 109.6
  progesterone: 829.0 ng/mL
[5]
  increase of 20 alpha-OH-progesterone synthesis over the control: 100 times
  increase of progesterone synthesis over the control: 60 times

## [F-].[Na+] [Sodium fluoride]
[6]
  adverse effects of nausea and gastric irritation: About 30%
  rheumatic pain in leg joints: 10%
